{
  "source": "ChEMBL document CHEMBL3734753",
  "about": "“Phenyl Ether- and Aniline-Containing 2-Aminoquinolines as Potent and Selective Inhibitors of Neuronal Nitric Oxide Synthase” (J Med Chem, 2015)",
  "key": {"Nitric oxide synthase 1 [1]": {"target": "Nitric oxide synthase 1 (Rattus norvegicus, UniProt P29476)", "sequence (P29476 whole entry)": "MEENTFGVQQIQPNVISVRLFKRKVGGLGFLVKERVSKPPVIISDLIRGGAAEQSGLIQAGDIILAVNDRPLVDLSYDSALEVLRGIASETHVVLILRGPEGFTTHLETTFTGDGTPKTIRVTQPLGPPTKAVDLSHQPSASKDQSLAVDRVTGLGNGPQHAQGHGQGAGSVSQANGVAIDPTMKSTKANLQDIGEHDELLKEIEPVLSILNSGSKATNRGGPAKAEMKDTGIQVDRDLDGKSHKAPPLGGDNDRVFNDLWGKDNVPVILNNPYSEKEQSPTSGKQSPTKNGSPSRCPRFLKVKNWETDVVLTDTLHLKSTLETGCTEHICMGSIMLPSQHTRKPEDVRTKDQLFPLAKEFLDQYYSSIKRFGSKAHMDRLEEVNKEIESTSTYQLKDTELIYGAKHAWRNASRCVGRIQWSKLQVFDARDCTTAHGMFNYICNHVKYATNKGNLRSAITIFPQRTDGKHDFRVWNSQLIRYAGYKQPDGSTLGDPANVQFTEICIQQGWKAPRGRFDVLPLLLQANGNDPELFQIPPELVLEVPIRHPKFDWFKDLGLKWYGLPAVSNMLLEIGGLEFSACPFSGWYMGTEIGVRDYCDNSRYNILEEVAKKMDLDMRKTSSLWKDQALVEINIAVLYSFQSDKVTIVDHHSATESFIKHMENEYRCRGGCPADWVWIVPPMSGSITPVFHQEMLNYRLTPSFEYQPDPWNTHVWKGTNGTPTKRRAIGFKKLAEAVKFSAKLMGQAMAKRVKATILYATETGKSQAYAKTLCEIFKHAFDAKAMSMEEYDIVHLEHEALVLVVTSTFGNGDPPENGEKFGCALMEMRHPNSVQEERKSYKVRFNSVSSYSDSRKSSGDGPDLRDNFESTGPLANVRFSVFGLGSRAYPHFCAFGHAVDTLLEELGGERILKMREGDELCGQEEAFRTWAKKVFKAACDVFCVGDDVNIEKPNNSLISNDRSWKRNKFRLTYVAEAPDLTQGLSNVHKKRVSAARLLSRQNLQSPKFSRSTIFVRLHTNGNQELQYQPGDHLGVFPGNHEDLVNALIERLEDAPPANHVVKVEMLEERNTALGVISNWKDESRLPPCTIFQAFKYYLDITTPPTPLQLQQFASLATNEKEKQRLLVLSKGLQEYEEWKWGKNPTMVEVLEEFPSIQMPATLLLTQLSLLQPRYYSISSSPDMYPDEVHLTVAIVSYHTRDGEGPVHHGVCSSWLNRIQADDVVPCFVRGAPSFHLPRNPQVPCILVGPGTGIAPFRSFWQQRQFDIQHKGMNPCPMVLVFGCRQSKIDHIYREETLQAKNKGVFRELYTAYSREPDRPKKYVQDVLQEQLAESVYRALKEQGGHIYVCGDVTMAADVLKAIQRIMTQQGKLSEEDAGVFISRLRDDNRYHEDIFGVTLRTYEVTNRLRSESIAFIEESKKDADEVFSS", "experiment": "Inhibition of wild type recombinant rat nNOS expressed in Escherichia coli assessed as nitric oxide production by hemoglobin capture assay"}, "Nitric oxide synthase 1 [2]": {"target": "Nitric oxide synthase 1 (Homo sapiens, UniProt P29475)", "sequence (P29475 whole entry)": "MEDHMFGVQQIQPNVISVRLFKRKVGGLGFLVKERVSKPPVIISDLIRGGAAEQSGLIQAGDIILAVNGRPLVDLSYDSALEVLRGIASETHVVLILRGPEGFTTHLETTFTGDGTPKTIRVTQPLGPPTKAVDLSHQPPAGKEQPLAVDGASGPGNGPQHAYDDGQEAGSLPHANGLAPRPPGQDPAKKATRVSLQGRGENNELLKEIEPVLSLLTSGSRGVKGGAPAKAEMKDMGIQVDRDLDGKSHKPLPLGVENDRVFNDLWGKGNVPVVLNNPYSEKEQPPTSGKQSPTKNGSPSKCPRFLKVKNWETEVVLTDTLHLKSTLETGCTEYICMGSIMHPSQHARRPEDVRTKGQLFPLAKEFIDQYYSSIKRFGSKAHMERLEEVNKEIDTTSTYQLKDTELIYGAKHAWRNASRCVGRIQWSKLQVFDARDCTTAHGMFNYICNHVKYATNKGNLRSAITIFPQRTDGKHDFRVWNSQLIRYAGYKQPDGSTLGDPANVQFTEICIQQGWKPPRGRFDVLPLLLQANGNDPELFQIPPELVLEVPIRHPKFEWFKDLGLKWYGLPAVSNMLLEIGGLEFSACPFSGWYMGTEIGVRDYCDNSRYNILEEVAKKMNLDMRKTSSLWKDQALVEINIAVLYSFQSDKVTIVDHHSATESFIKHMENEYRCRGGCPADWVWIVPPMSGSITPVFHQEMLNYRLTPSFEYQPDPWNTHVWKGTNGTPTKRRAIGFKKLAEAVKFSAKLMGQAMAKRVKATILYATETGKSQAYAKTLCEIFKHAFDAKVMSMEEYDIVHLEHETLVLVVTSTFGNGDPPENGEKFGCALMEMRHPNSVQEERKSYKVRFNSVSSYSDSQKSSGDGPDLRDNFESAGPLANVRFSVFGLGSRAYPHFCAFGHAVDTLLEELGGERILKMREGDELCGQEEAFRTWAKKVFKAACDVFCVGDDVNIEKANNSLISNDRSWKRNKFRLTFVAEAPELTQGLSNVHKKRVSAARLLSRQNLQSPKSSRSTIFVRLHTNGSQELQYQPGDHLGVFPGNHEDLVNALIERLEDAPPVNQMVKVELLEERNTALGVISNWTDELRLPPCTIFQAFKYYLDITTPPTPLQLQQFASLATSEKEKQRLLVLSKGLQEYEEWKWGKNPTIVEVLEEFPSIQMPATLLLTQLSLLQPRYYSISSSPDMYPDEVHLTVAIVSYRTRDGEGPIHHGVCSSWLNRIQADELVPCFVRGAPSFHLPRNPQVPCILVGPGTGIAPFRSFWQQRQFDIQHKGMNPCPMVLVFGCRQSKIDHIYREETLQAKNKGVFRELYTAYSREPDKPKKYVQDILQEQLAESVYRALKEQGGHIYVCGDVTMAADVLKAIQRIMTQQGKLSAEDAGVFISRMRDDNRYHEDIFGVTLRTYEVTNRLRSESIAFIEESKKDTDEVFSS"}, "[3]": {"experiment": "Selectivity ratio of Ki for wild type recombinant rat nNOS to Ki for bovine eNOS"}, "Nitric oxide synthase 3": {"target": "T1, Nitric oxide synthase 3 (Bos taurus, UniProt P29473)", "T1 sequence (P29473 whole entry)": "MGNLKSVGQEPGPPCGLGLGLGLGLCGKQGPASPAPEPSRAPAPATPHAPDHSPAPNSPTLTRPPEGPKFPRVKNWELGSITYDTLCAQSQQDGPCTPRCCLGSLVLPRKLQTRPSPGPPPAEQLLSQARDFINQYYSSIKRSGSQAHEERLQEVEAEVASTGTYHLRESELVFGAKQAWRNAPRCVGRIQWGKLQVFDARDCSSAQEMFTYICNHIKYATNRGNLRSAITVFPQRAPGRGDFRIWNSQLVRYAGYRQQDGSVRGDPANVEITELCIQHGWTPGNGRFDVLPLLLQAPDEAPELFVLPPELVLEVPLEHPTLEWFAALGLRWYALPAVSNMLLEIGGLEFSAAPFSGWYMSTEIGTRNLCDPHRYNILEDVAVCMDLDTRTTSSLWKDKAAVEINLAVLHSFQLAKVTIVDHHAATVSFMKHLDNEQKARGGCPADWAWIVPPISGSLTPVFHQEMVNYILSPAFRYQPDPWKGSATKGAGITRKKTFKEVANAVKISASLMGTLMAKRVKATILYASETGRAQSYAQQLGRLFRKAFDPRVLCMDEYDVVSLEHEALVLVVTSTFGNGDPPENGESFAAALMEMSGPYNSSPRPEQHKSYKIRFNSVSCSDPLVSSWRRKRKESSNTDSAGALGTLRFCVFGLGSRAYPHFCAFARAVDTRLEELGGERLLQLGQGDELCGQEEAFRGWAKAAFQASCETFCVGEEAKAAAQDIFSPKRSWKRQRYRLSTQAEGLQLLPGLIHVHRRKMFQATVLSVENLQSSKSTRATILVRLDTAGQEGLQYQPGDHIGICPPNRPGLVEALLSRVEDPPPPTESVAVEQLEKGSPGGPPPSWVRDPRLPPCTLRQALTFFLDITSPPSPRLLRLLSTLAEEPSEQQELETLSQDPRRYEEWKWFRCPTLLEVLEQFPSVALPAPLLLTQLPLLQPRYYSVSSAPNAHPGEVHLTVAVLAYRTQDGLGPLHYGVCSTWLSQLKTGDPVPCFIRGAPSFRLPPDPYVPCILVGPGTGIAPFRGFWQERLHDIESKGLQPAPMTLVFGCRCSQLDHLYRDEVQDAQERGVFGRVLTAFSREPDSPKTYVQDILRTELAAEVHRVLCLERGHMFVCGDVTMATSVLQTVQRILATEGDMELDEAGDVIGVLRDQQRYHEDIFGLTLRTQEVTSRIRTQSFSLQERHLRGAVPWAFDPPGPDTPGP", "experiment": "Inhibition of recombinant bovine eNOS expressed in Escherichia coli assessed as nitric oxide production by hemoglobin capture assay"}, "[4]": {"target": "T2, Nitric oxide synthase, inducible (Mus musculus, UniProt P29477)", "T2 sequence (P29477 whole entry)": "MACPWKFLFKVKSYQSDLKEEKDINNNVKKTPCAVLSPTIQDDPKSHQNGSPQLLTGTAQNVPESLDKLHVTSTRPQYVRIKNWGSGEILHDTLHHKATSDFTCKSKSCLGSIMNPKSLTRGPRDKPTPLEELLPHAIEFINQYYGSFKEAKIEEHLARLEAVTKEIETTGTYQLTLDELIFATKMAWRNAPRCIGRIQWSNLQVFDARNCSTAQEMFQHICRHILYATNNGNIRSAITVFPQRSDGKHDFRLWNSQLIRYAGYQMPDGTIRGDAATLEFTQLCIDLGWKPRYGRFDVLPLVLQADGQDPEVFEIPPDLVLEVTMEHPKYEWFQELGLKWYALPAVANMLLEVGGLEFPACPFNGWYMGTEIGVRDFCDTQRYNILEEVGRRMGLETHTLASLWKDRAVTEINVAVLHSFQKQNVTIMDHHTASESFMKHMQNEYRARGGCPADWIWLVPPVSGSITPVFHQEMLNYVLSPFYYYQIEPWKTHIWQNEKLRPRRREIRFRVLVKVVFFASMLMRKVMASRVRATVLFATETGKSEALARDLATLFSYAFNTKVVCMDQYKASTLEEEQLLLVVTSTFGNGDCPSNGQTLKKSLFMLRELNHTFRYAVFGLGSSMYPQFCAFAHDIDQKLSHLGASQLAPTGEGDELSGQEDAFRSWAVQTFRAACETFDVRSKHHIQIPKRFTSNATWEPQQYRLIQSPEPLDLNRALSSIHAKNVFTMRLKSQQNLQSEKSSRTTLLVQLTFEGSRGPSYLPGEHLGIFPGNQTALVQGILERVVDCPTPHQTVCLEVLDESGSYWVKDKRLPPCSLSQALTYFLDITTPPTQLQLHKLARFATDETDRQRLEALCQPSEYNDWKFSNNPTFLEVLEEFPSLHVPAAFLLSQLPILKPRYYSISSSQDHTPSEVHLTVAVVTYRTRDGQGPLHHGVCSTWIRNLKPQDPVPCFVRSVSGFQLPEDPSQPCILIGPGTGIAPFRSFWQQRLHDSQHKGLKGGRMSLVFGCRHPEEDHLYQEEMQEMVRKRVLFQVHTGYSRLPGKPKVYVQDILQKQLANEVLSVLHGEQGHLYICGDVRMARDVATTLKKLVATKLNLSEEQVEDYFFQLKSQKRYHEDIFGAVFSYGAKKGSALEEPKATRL"}, "[5]": {"experiment": "Selectivity ratio of Ki for wild type recombinant rat nNOS to Ki for human nNOS"}},
  "data": [
    {"smiles": "CNCc1cncc(OCc2ccc3ccc(N)nc3c2)c1", "values": [
      {"measurement": "Ki", "setting": "Nitric oxide synthase 1 [1]", "result": 43, "unit": "nM"},
      {"measurement": "Ki", "setting": "Nitric oxide synthase 1 [2]", "result": 507, "unit": "nM"},
      {"measurement": "Ratio Ki", "setting": "[3]", "result": 77},
      {"measurement": "Ki", "setting": "Nitric oxide synthase 3", "result": 3.31, "unit": "µM"},
      {"measurement": "Ki", "setting": "[4]", "result": 13.5, "unit": "µM"},
      {"measurement": "Ratio Ki", "setting": "[5]", "result": 11.8}
    ]},
    {"smiles": "CNC(C)c1cccc(OCc2ccc3ccc(N)nc3c2)c1", "note": "(racemic)", "values": [
      {"measurement": "Ki", "setting": "Nitric oxide synthase 1 [1]", "result": 360, "unit": "nM"},
      {"measurement": "Ki", "setting": "[4]", "result": 67.1, "unit": "µM"}
    ]},
    {"smiles": "CNCc1cc(OCc2ccc3ccc(N)nc3c2)ccc1F", "values": [
      {"measurement": "Ki", "setting": "[4]", "result": 11.4, "unit": "µM"}
    ]},
    {"smiles": "Nc1ccc2ccc(COc3cccnc3)cc2n1", "values": [
      {"measurement": "Ki", "setting": "Nitric oxide synthase 1 [1]", "result": 712, "unit": "nM"}
    ]},
    {"smiles": "CN(C)CCCc1cccc(OCc2ccc3ccc(N)nc3c2)c1", "values": [
      {"measurement": "Ki", "setting": "Nitric oxide synthase 1 [1]", "result": 652, "unit": "nM"}
    ]},
    {"smiles": "CN(C)c1cccc(OCc2ccc3ccc(N)nc3c2)c1", "values": [
      {"measurement": "Ki", "setting": "Nitric oxide synthase 1 [1]", "result": "> 5750", "unit": "nM"}
    ]},
    {"smiles": "CNCc1ccc(OCc2ccc3ccc(N)nc3c2)cc1", "values": [
      {"measurement": "Ki", "setting": "Nitric oxide synthase 1 [1]", "result": 332, "unit": "nM"},
      {"measurement": "Ki", "setting": "[4]", "result": 48.7, "unit": "µM"}
    ]},
    {"smiles": "CN(C)CCOc1cccc(OCc2ccc3ccc(N)nc3c2)c1", "values": [
      {"measurement": "Ratio Ki", "setting": "[3]", "result": 44},
      {"measurement": "Ki", "setting": "Nitric oxide synthase 3", "result": 31, "unit": "µM"},
      {"measurement": "Ki", "setting": "[4]", "result": 178, "unit": "µM"}
    ]},
    {"smiles": "CNCc1cccc(NCc2ccc3ccc(N)nc3c2)c1", "values": [
      {"measurement": "Ki", "setting": "Nitric oxide synthase 1 [1]", "result": 569, "unit": "nM"}
    ]},
    {"smiles": "CN(C)CCc1cccc(OCc2ccc3ccc(N)nc3c2)c1", "values": [
      {"measurement": "Ki", "setting": "Nitric oxide synthase 1 [1]", "result": 468, "unit": "nM"},
      {"measurement": "Ki", "setting": "Nitric oxide synthase 3", "result": 17.7, "unit": "µM"},
      {"measurement": "Ki", "setting": "[4]", "result": 150, "unit": "µM"}
    ]}
  ]
}
